From ChEMBL document CHEMBL1148411 (J Med Chem, 2004)
Numbered stars: 1 amine (or outer) side, 2 acyl side, 3 side chain; on linkers, the order of the positions; unused ones are H or OH. Bridge positions count the residues as written; N and C are the ends. Square brackets hold non-standard residues; d marks the D form. Peptide text beside a SMILES is read from it. Phe(4-NH2) = Nc1ccc(C[C@H](N)C(=O)O)cc1; CH2 = C([*:1])[*:2]

The molecules below were run against T1, Angiotensin II receptor (AT-1) type-1 (Rattus norvegicus, UniProt P29089+P25095) (assay: Binding affinity for angiotensin II receptor type 1 using [125I]- Ang II in rat liver membranes).
T1 sequence (P29089 whole entry): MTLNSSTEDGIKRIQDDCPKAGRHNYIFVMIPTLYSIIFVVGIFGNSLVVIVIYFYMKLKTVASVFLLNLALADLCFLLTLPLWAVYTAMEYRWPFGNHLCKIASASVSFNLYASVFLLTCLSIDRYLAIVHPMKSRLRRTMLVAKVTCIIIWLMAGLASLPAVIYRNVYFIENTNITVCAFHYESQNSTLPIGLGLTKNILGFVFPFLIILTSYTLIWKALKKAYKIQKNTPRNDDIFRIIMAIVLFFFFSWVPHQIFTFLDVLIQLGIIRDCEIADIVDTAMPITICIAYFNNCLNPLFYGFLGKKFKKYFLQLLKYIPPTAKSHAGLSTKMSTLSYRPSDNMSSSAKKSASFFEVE
T1 sequence (P25095 whole entry): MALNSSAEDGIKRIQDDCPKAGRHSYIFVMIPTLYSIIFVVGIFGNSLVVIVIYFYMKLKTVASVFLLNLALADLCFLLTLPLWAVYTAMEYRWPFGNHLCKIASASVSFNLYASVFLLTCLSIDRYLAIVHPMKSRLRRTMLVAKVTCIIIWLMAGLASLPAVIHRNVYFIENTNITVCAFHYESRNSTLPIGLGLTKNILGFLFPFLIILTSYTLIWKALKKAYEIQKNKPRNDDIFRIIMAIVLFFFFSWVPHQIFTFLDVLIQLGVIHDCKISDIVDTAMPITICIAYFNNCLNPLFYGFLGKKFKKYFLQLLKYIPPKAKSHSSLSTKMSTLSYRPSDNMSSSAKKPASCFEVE
Type: cell membranes, Membrane

SMILES	Ki
N=C(N)NCCC[C@H](NC(=O)[C@@H](N)CC(=O)O)C(=O)N[C@H]1CSCSC[C@@H](C(=O)N[C@@H](Cc2cnc[nH]2)C(=O)N2CCC[C@H]2C(=O)N[C@@H](Cc2ccccc2)C(=O)O)NC(=O)[C@H](Cc2ccc(O)cc2)NC1=O (H-DRCYCHPF-OH; linker 3-5 via CH2)	0.044 µM
CC[C@H](C)[C@H](NC(=O)[C@H](Cc1ccc(O)cc1)NC(=O)[C@@H](NC(=O)[C@H](CCCN=C(N)N)NC(=O)[C@@H](N)CC(=O)O)C(C)C)C(=O)N[C@@H](Cc1ccc(N)cc1)C(=O)N1CCC[C@H]1C(=O)N[C@@H](Cc1ccccc1)C(=O)O (H-DRVYI[Phe(4-NH2)]PF-OH)	> 10 µM
CC[C@@H](C)[C@@H](C(=O)N[C@@H](Cc1c[nH]cn1)C(=O)N1CCC[C@H]1C(=O)N[C@@H](Cc1ccccc1)C(=O)O)N1Cc2cc(NC(=O)[C@H](CCCN=C(N)N)NC(=O)[C@@H](N)CC(=O)O)ccc2[C@@H](Cc2ccc(O)cc2)C1=O (single isomer, unassigned; diastereomer a)	> 10 µM

Second part, the molecule after the results:

Ki	SMILES
> 10 µM	CC(C)[C@H](NC(=O)[C@H](C)NC(=O)[C@@H](N)CC(=O)O)C(=O)Nc1ccc2c(c1)CN(CC(=O)N[C@@H](Cc1c[nH]cn1)C(=O)N1CCC[C@H]1C(=O)N[C@@H](Cc1ccccc1)C(=O)O)C(=O)[C@H](Cc1ccc(O)cc1)N2
> 10 µM	CC(C)[C@H](NC(=O)[C@H](CCCN=C(N)N)NC(=O)[C@@H](N)CC(=O)O)C(=O)N[C@@H](Cc1ccc(O)cc1)C(=O)Nc1ccc2c(c1)CN(CC(=O)N[C@@H](Cc1ccccc1)C(=O)O)C(=O)[C@H](Cc1c[nH]cn1)N2
